According to patent publication US20230277630A1, “METHODS AND COMPOSITIONS FOR TREATING AMYOTROPHIC LATERAL SCLEROSIS” (Amylyx Pharmaceuticals, Inc., priority 2022, published 2023):
“And” between values parts separate entries of the source, which are not always exact repeats. Equal entries are not always repeated.

Legend:
P-gp [1] = target: T1, P-gp (Homo sapiens, UniProt P08183); assay: P-gp IC50 assessment, bidirectional digoxin transport in C2BBe1 cells
Description: After 30 minutes, the pre-incubation solution was aspirated.

OAT3 = target: T2, OAT3 (Homo sapiens, UniProt Q8TCC7)
T2 sequence (Q8TCC7 1-542): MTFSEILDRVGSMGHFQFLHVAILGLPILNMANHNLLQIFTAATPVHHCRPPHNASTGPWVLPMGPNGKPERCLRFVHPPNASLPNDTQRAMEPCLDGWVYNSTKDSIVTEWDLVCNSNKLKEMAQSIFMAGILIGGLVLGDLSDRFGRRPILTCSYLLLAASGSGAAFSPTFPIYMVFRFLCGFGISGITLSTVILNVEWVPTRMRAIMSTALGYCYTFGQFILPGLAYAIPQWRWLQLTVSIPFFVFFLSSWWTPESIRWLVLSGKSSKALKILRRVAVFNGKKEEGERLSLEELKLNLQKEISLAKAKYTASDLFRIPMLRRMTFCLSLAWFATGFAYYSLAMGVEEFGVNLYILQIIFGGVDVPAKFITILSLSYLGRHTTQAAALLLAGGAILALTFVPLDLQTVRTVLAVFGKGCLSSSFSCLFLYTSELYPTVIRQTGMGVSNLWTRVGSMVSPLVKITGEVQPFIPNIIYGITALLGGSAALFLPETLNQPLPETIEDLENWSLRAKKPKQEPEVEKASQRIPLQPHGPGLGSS

OCT2 = target: T3, OCT2 (Homo sapiens, UniProt O15244)
T3 sequence (O15244 1-555): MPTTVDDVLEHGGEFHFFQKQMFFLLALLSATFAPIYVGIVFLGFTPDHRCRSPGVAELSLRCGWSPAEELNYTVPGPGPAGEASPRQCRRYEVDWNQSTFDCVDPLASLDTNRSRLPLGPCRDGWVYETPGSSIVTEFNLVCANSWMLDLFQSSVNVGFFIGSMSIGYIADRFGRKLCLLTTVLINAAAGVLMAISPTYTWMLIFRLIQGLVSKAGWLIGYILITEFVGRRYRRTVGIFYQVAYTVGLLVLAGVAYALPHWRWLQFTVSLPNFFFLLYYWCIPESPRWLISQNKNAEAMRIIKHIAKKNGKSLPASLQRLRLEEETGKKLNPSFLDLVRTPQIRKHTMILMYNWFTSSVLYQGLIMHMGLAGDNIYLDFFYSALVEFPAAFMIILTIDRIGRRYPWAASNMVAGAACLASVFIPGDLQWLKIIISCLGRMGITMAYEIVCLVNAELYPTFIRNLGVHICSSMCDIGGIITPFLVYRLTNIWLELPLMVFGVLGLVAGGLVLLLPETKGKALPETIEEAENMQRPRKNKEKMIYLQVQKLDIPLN

[2] = Human Plasma Protein Binding; assay type: in vitro ADME
[3] = target: T4, human liver microsomes (HLM) (Homo sapiens, UniProt P05177); assay: CYP reaction phenotyping using HLM and chemical inhibitors (% remaining); assay type: in vitro ADME; details: human, microsomes, 5 μM, pH 7.4
T4 construct: from tissue; host or cells: pooled human liver microsomes
T4 sequence (P05177 1-516): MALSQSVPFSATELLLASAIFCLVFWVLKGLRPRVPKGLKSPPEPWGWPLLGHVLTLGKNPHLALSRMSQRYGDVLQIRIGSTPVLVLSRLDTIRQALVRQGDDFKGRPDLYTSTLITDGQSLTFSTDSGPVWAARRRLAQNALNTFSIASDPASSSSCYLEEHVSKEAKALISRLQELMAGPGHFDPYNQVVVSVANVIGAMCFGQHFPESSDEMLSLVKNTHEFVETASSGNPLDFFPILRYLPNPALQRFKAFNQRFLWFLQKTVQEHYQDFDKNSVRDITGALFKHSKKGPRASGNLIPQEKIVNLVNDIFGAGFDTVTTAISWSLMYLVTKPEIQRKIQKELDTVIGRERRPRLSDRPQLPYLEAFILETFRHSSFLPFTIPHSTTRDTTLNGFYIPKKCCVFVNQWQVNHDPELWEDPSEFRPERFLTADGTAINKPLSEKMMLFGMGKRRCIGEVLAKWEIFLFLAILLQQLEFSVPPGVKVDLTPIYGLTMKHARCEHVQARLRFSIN
Source text: (§1) % Remaining of TA=100×At/A0
(§2) Where, At and A0 are the peak area ratio of TA to IS at time t and at time zero, respectively.

[4] = tested on: human liver microsomes (HLM); assay: as above; assay type: in vitro ADME; details: human, microsomes, 5 μM, pH 7.4
Source text: as §1, §2

[5] = target: T5, human liver microsomes (HLM) (Homo sapiens, UniProt P11712); assay: as above; assay type: in vitro ADME; details: human, microsomes, 5 μM, pH 7.4
T5 construct: from tissue; host or cells: pooled human liver microsomes
T5 sequence (P11712 whole entry): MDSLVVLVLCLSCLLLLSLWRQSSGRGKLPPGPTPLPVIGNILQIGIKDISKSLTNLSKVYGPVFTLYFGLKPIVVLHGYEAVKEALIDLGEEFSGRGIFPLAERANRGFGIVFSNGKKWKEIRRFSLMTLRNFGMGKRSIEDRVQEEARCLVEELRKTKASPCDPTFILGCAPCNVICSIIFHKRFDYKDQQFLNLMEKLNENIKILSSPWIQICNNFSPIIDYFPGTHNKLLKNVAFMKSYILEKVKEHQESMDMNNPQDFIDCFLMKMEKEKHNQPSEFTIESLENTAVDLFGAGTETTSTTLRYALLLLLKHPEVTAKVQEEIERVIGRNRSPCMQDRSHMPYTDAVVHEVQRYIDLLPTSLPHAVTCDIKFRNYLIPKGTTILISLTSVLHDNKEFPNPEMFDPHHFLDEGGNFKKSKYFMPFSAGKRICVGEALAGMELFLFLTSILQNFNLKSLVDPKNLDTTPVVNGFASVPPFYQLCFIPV
Source text: as §1, §2

[6] = target: T6, human liver microsomes (HLM) (Homo sapiens, UniProt P10635); assay: as above; assay type: in vitro ADME; details: human, microsomes, 5 μM, pH 7.4
T6 construct: from tissue; host or cells: pooled human liver microsomes
T6 sequence (P10635 whole entry): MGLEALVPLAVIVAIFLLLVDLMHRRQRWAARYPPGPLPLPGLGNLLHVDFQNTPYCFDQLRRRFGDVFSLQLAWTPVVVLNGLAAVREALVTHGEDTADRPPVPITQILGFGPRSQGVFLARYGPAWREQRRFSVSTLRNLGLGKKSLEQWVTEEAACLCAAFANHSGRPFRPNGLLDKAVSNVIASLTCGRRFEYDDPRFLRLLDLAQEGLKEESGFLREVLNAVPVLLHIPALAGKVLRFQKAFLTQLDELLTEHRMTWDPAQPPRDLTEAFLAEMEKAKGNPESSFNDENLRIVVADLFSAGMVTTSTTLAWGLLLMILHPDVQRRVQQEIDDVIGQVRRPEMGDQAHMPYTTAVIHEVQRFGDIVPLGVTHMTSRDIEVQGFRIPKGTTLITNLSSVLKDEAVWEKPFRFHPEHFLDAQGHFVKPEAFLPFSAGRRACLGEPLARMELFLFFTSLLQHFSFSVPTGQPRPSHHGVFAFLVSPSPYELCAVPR
Source text: as §1, §2

[7] = target: T7, human liver microsomes (HLM) (Homo sapiens, UniProt P33261); assay: as above; assay type: in vitro ADME
T7 construct: from tissue; host or cells: pooled human liver microsomes
T7 sequence (P33261 whole entry): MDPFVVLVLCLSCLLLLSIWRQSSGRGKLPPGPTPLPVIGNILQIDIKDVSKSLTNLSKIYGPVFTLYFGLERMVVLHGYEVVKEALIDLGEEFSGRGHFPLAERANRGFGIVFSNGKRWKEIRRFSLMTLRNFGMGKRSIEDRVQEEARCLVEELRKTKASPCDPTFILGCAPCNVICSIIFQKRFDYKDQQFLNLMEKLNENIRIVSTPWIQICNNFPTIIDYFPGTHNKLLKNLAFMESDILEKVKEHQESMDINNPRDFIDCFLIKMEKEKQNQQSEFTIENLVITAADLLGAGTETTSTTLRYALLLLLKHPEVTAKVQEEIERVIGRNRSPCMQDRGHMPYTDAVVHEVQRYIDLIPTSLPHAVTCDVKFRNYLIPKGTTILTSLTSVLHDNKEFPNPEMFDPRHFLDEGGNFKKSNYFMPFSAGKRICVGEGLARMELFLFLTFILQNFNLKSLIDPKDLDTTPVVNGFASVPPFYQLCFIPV
Source text: as §1, §2

P-gp [8] = target: T1, P-gp; assay: P-gp IC50 assessment, bidirectional digoxin transport in MDR1-MDCK cells
[9] = human, microsomes, 0 h, 5 μM, pH 7.4
[10] = human, microsomes, 5 min, 5 μM, pH 7.4
[11] = human, microsomes, 20 min, 5 μM, pH 7.4
[12] = human, microsomes, 1 h, 5 μM, pH 7.4

T1 sequence (P08183 whole entry): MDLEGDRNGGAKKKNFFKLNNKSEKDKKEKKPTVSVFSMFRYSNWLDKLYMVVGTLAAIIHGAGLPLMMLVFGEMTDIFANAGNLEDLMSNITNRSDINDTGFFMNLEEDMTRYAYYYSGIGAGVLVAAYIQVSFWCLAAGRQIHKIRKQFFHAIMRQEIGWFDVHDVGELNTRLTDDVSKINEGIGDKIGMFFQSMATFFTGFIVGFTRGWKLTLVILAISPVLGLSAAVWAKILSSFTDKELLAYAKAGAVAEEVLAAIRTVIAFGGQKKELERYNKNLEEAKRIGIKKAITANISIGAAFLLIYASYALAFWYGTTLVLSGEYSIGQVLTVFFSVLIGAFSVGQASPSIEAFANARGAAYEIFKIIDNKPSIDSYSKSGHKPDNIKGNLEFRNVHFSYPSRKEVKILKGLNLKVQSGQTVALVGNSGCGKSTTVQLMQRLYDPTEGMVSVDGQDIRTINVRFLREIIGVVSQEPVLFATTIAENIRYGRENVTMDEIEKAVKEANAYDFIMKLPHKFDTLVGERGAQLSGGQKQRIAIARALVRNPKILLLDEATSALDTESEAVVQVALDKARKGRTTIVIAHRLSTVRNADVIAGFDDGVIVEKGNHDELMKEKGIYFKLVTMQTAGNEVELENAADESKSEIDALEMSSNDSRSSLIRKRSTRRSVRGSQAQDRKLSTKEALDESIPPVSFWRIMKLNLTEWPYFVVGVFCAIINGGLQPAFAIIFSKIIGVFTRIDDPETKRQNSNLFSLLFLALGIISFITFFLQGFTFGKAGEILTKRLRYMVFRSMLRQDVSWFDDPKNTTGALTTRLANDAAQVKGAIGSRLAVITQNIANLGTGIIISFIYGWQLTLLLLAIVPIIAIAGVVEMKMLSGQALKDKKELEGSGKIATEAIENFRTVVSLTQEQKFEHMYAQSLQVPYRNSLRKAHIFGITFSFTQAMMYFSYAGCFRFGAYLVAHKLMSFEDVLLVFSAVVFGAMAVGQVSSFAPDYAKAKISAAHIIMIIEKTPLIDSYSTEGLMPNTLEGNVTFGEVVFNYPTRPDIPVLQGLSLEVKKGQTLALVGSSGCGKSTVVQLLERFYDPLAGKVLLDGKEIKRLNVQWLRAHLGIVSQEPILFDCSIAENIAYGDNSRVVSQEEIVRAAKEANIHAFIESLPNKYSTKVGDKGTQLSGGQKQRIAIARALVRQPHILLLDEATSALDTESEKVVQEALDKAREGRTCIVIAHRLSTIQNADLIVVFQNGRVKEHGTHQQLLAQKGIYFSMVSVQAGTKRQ

SMILES | IC50 (P-gp [1]) [mM] | IC50 (OAT3) | IC50 (OCT2) [mM] | fraction unbound [2] | % Remaining of TA (n = 3) Average ([3]; 0 h) [%] | % Remaining of TA (n = 3) Average ([3]; 5 min) [%] | % Remaining of TA (n = 3) Average ([3]; 10 min) [%] | % Remaining of TA (n = 3) Average ([3]; 20 min) [%] | % Remaining of TA (n = 3) Average ([3]; 0.5 h) [%] | % Remaining of TA (n = 3) Average ([3]; 1 h) [%] | % Remaining of TA (n = 3) Average ([5]; 0 h) [%] | % Remaining of TA (n = 3) Average ([5]; 5 min) [%] | % Remaining of TA (n = 3) Average ([5]; 20 min) [%] | % Remaining of TA (n = 3) Average ([5]; 0.5 h) [%] | % Remaining of TA (n = 3) Average ([5]; 1 h) [%] | % Remaining of TA (n = 3) Average ([6]; 0 h) [%] | % Remaining of TA (n = 3) Average ([6]; 20 min) [%] | % Remaining of TA (n = 3) Average ([6]; 1 h) [%] | % Remaining of TA (n = 3) Average [7, 9] [%] | % Remaining of TA (n = 3) Average [7, 10] [%] | other results
C[C@H](CCC(=O)NCCS(=O)(=O)O)[C@H]1CC[C@H]2[C@@H]3[C@@H](O)C[C@@H]4C[C@H](O)CC[C@]4(C)[C@H]3CC[C@]12C [TUDCA, tauroursodeoxycholic acid] | 0.222 to 0.667 | 0.054 to 0.162 mM and 0.0054 to 0.162 mM | > 0.162 | 0.015 | 100 | 123 | 123 | 121 | 120 | 128 | 100 | 102 | 92.8 | 95.0 | 95.3 | 100 | 99.7 | 87.2 | 100 | 106 | % Remaining of TA (n = 3) Average ([4]; 0 h): 100%; % Remaining of TA (n = 3) Average ([5]; 10 min): 96.9%; % Remaining of TA (n = 3) Average ([6]; 5 min): 101%; % Remaining of TA (n = 3) Average ([6]; 10 min): 110%; % Remaining of TA (n = 3) Average ([6]; 0.5 h): 101%; % Remaining of TA (n = 3) Average ([7]; human, microsomes, 10 min, 5 μM, pH 7.4): 93.0%; % Remaining of TA (n = 3) Average [7, 11]: 93.1%; % Remaining of TA (n = 3) Average [7, 12]: 94.5%; % Remaining of TA (n = 3) Average ([7]; reversible incubation condition, CYP2C19 (+NADPH, +N3B), 30 min): 92.1%; IC50 (P-gp [8]): 0.889 to 2.67 mM
O=C(O)CCCc1ccccc1 [PB, sodium phenylbutyrate] | 1.79 to 5.37 | 4.93 to 14.8 mM | > 14.8 | 0.179 | 100 | 116 | 131 | 125 | 127 | 128 | 100 | 103 | 98.5 | 99.6 | 97.6 | 100 | 97.5 | 98.8 | 100 | 101 | % Remaining of TA (n = 3) Average ([4]; 5 min): 109%; % Remaining of TA (n = 3) Average ([4]; 20 min): 113%; % Remaining of TA (n = 3) Average [7, 11]: 101%; % Remaining of TA (n = 3) Average ([7]; human, microsomes, 0.5 h, 5 μM, pH 7.4): 101%; % Remaining of TA (n = 3) Average [7, 12]: 101%; IC50 (P-gp [8]): 7.16 to 21.5 mM
